This note sets out measurements from patent US10758478B2, “Active agent loaded uniform, rigid, spherical, nanoporous calcium phosphate particles and methods of making and using the same” (Laboratory Skin Care, Inc., priority 2008, dated 2020).

Series [1] is described as follows: Binding capacity to hydroxyapatite. The format is physicochemical.
A short description of series [2]: Solubility of salicylic acid (water, ethanol and PEG). Format: physicochemical.

For the compound `O=C(O)c1ccccc1O` [Salicylic acid, 2-Hydroxybenzoic acid], the “binding capacity to hydroxyapatite” value in series [1] is at most 1 mg. Moreover, the “solubility in ethanol and PEG (poly ethylene glycol)” value in series [2] (ethanol and PEG) was “up to 30%”. Further, in series [2] (water), the solubility in water result is recorded as “water insoluble”.
